The values below come from patent publication US20050113331A1, “Compositions and methods for use of antiviral drugs in the treatment of retroviral diseases resistant to nucleoside reverse transcriptase inhibitors” (priority 2003, published 2005).

Broadly, the IC50 is the concentration needed to halve the response being measured. Broadly, the EC50 is the concentration that produces a half-maximal response. For orientation: inhibition means how much of the control response was suppressed.

Read-outs that look alike come from different tables or passages of the source.

The target of assay [1] is TAM-mutant HIV-1 reverse transcriptase (UniProt P04585). It is filed as biochemical. Further details: other: preferred BPH variants. The note with it: read-out: Estimated IC50; preferred BPH variants; quantity inhibited not given. The method, then: (§1) An 18 nucleotide DNA oligonucleotide (“primer DNA”) of sequence 5′-[…]-3′ was 5′ end labeled using [y^32p]-ATP and T4 polynucleotide kinase. The labeled primer DNA was purified by polyacrylamide gel electrophoresis, and then annealed to a synthetic DNA oligonucleotide (“template DNA”) of the sequence 5′-[…] […]-3′, to form “template/primer DNA”. Template/primer DNA was then chain-terminated with AZTMP by incubating for 30 minutes at 37° C. with HIV-1 reverse transcriptase in 50 mM Tris-HCl, pH 7.8, containing 60 mM KCl, 10 mM MgCl2, and 100 μM AZTTP. The total incubation sample was then dried under reduced pressure and the [^32P]-labeled, 3′-AZTMP-terminated primer DNA (now 19 nucleotides in length) was purified by polyacrylamide gel electrophoresis. The purified [^32P]-labeled, 3′-AZTMP-terminated primer DNA was annealed to template DNA to form the nucleic acid excision substrate (termed “AZTMP-T/P”).
(§2) At various times thereafter, aliquots were removed and quenched by dilution into sequencing gel loading buffer (98% deionized formamide, 10 mM EDTA, and 1 mg/mL each of bromophenol blue and xylene cyanol). Samples were heated at 100° C. for 5 minutes then subjected to polyacylamide gel electrophoresis using 16% polyacrylamide/7 M urea gels. Electrophoretically resolved products were visualized and quantified by phosphorimaging analysis.
(§3) The [^32P]-labeled, 3′-AZTMP-terminated nucleic acid excision substrate (“AZTMP-T/P”) is made as described in Example 2. […] After 10 minutes (for reactions with ATP) or 5 minutes (for reactions with sodium pyrophosphate), the reactions are stopped by the addition of 2 volumes of sequencing gel loading buffer (98% deionized formamide, 10 mM EDTA, and 1 mg/ml each of bromophenol blue and xylene cyanol). An identical control reaction in which RT is omitted is also carried out simultaneously. Samples are heated at 100° C. for 5 minutes then subjected to polyacylamide gel electrophoresis using 16% polyacrylamide/7 M urea gels. Electrophoretically resolved products are visualized and quantified by phosphorimaging analysis. The percent excision is defined by the amount of the 19 nucleotide [^32P]-labeled, 3′-AZTMP-terminated primer DNA in the sample divided by the amount of the 19 nucleotide [^32P]-labeled, 3′-AZTMP-terminated primer DNA in the control, multiplied by 100.

Assay [2] has the same target. It is filed as biochemical. Further details: AZT-terminated DNA that had undergone excision; other: 20 micromolar 218A, 3 mM ATP, after 10 minutes; 65% without bisp; other: 5 micromolar bisphosphonate, 3 mM ATP, after 10 min; 65% without. The settings on record: for % Inhibition of AZT excision: BPH concentration not given. Here is the method:
as §1, §2, §3

The next assay concerns wild type HIV-1. The assay is described as follows: Antiviral activity against wild type HIV-1 in P4/R5 cells. It is filed as cell-based. The note with it: Human immunodeficiency virus 1, compound alone, read-out: EC50 against replication.
The test system of another assay is AZT-resistant HIV-1. The assay can be described thus: Antiviral activity against AZT-resistant HIV-1 in P4/R5 cells. It is filed as cell-based. Here is the method:
P4/R5 cells are plated in 96-well culture dishes at a cell density of 3×10^3 cells/well in 100 μl DMEM/10% fetal bovine serum. In one set of plates, bisphosphonate variants are added (25μM final concentration in FIG. 6) to individual wells. In another identical set of plates, bisphosphonate variants are added along with specific concentrations of AZT (0.1 μM final concentration in FIG. 6). Each well is inoculated with AZT-resistant HIV (multiplicity of infection=1), and the cells are incubated at 37° C. for 48 hours. The cells are then washed and the extent of HIV infection is determined fluorometrically. The percent inhibition of HIV replication is calculated as [1-(fluorescence signal of cells infected in the presence of bisphosphonate divided by the fluorescence signal of cells infected in the absence of any drug)] multiplied by 100.

For the compound `O=P(O)(O)C(Nc1cccc(CO)c1)P(=O)(O)O` [Compound 280A], the IC50 in assay [1] was 7.9 µM.
Consider `O=P(O)(O)C(O)(Cc1cccc(-c2cc(F)ccc2F)c1)P(=O)(O)O` [Compound 334A], for which the half-inhibitory concentration (IC50) in assay [1] is 1.5 µM.
`CN(C)Cc1cccc(CC(O)(P(=O)(O)O)P(=O)(O)O)c1` [Compound 289A]: the IC50 in assay [1] is 8.3 µM.
Same read-out and setting: with `CC(C)CCNCC(P(=O)(O)O)P(=O)(O)O` [Compound 311A] the figure was 15.5 µM; with `COCc1cccc(NC(P(=O)(O)O)P(=O)(O)O)c1` [Compound 281A], 9.5 µM.
Regarding `CC(C)c1cccc(NC(P(=O)(O)O)P(=O)(O)O)c1` [Compound 248A], the IC50 in assay [1] was 3.7 µM. Also, in assay [2], the “% Inhibition of AZT excision” value came to 59%.
In the case of `O=P(O)(O)C(Nc1ccc2c(c1)CCC2)P(=O)(O)O` [Compound 215A], in assay [1], the IC50 is 4.5 µM. The “% Inhibition of AZT excision” value in assay [2] was found to be 75%.
The corresponding values for `CCn1c2ccccc2c2cc(NC(P(=O)(O)O)P(=O)(O)O)ccc21` [Compound 228A] are 4.1 µM and 60%.
With `O=P(O)(O)C(Nc1cccc(-c2ccc(F)c(F)c2)c1)P(=O)(O)O` [Compound 327A], in assay [1], the IC50 is 2.1 µM.
Regarding `O=P(O)(O)C(O)(Cc1cccc(C(F)(F)F)c1)P(=O)(O)O` [Compound 250A], in assay [1], the IC50 is 2.9 µM. Moreover, the “% Inhibition of AZT excision” value in assay [2] is given as 68%.
For the compound `COc1ccc(-c2ccc(CC(O)(P(=O)(O)O)P(=O)(O)O)cc2)cc1` [Compound 333A], in assay [1], the IC50 is 5.2 µM.
Take `O=P(O)(O)C(O)(Cc1cccc(Cl)c1)P(=O)(O)O` [Compound 253A]: the IC50 in assay [1] was 3.1 µM. Besides, in assay [2], the “% Inhibition of AZT excision” value is recorded as 70%.
Take `O=P(O)(O)C(Nc1ccc(Br)cn1)P(=O)(O)O` [Compound 48B]: in assay [1], the IC50 is 3.4 µM.
Take `O=P(O)(O)C(O)(CC12CC3CC(CC(C3)C1)C2)P(=O)(O)O` [Compound 329A]: in assay [1], the IC50 was 4.6 µM.
For `O=P(O)(O)C(O)(Cc1cccc(-c2ccc(F)cc2)c1)P(=O)(O)O` [Compound 313A], the IC50 in assay [1] was 1.9 µM.
For the compound `O=C(O)P(=O)(O)O` [Foscarnet, phosphonoformic acid, reference compound], the “concentration dependence of inhibition of ATP-mediated excision of AZT” value in assay [2] (increasing concentration, FIG. 3) is listed as “did not inhibit ATP-mediated excision of AZT as well as 218A”.
On to `O=P(O)(O)C(CNc1ccc(-c2ccccc2)cc1)P(=O)(O)O` [Compound 331A], for which the IC50 in assay [1] is 4.6 µM.
Still for that read-out and setting: with `O=P(O)(O)C(O)(Cc1cccc(I)c1)P(=O)(O)O` [Compound 279A] the figure was 1.1 µM; with `O=P(O)(O)C(Nc1ccc(Cl)cc1Cl)P(=O)(O)O` [Compound 244A], 8 µM; with `O=P(O)(O)C(O)(Cc1ccc(-c2ccc(F)cc2)cc1)P(=O)(O)O` [Compound 325A], 2.9 µM.
Still for that read-out and setting: with `O=P(O)(O)C(Cn1cnc2ccccc21)P(=O)(O)O` [Compound 298A] the figure was 13.5 µM.
As to `O=P(O)(O)C(O)(Cc1cccc(Br)c1)P(=O)(O)O` [Compound 255A], in assay [1], the IC50 was 1.8 µM. Also, in assay [2], the “% Inhibition of AZT excision” value turned out to be 76%.
In the case of `COc1cccc(CC(O)(P(=O)(O)O)P(=O)(O)O)c1` [Compound 341A], in assay [1], the IC50 was 5.4 µM.
On the same count and under the same terms, the figure for `O=P(O)(O)C(Nc1cccc(Br)c1)P(=O)(O)O` [Compound 302A] is 1 µM.
Take `O=P(O)(O)C(Nc1cccc(Cc2ccccc2)c1)P(=O)(O)O` [Compound 262A]: the IC50 in assay [1] was 4.2 µM. The “% Inhibition of AZT excision” value in assay [2] was found to be 66%.
For the compound `O=P(O)(O)C(Nc1cccc(-c2cc(F)cc(F)c2)c1)P(=O)(O)O` [Compound 317A], the IC50 in assay [1] is 2.1 µM.
For `O=P(O)(O)C(Nc1cccc(-c2ccc(F)cc2F)c1)P(=O)(O)O` [Compound 316A], in assay [1], the IC50 was 3.9 µM.
The same measure, in the same setting: with `O=P(O)(O)C(Nc1ccc(Cc2ccccc2)cc1)P(=O)(O)O` [Compound 332A] the figure was 3.5 µM.
On to `O=P(O)(O)C(CNc1cccc(-c2ccccc2)c1)P(=O)(O)O` [Compound 312A], for which the IC50 in assay [1] was 11.3 µM.
Still for that read-out and setting: with `O=P(O)(O)C(O)(Cc1cccc(-c2ccc(F)c(F)c2)c1)P(=O)(O)O` [Compound 336A] the figure was 1 µM; with `O=[N+]([O-])c1cccc(NC(P(=O)(O)O)P(=O)(O)O)c1` [Compound 304A], 2.7 µM.
The same measure, in the same setting: the figure for `O=P(O)(O)C(O)(Cc1ccc(-c2ccc(Cl)cc2)cc1)P(=O)(O)O` [Compound 326A] is 3.9 µM.
Take `O=P(O)(O)C(O)(Cc1cccc(-c2ccc(Cl)cc2)c1)P(=O)(O)O` [Compound 314A]: the IC50 in assay [1] was 0.9 µM.
`O=P(O)(O)C(O)(Cc1cccc(Oc2ccccc2)c1)P(=O)(O)O` [Compound 339A]: in assay [1], the IC50 is 3.3 µM.
On to `O=[N+]([O-])c1cccc(CC(O)(P(=O)(O)O)P(=O)(O)O)c1` [Compound 256A], for which the IC50 in assay [1] is 2.5 µM. In assay [2], the “% Inhibition of AZT excision” value is recorded as 66%.
For the compound `O=P(O)(O)C(O)(Cc1cccc2ccccc12)P(=O)(O)O` [Compound 257A], in assay [1], the IC50 was 1.35 µM.
For the compound `Cc1cn([C@H]2C[C@H](N=[N+]=[N-])[C@@H](CO)O2)c(=O)[nH]c1=O` [AZT, 3′-azido-3′-deoxythymidine], the EC50 is approximately 0.14 µM with wild type HIV-1; more than 0.025 µM in the assay on AZT-resistant HIV-1 (Human immunodeficiency virus 1, P4/R5, read-out: EC50 of AZT in the presence of 218A); approximately 1.2 µM in the assay on AZT-resistant HIV-1 (Human immunodeficiency virus 1, compound alone, P4/R5 cells, read-out: EC50 against replication). The inhibition at 0.1 µM in the assay with AZT-resistant HIV-1 (Human immunodeficiency virus 1, P4/R5, 0.1 μM final concentration, alone, 48 hours, FIG. 6, read-out: percent inhibition of HIV replication) was determined as 2%.
Regarding `O=P(O)(O)C(O)(Cc1ccc(Cl)c(Cl)c1)P(=O)(O)O` [Compound 342A], the IC50 in assay [1] is 0.4 µM.
Same read-out and setting: with `COc1ccc(-c2cccc(CC(O)(P(=O)(O)O)P(=O)(O)O)c2)cc1` [Compound 315A] the figure was 2.4 µM; with `Cc1ccc(NC(P(=O)(O)O)P(=O)(O)O)cc1-c1ccccc1` [Compound 340A], 5 µM.
The same measure, in the same setting: with `O=P(O)(O)C(O)(Cc1cccc(I)c1)P(=O)(O)O` [Compound 251A] the figure was 3.4 µM.
